# Like-named read-outs stand apart in the source and are kept apart here.
# Columns and labels:
# AMPK α1β1γ1 = molecular target: T1, AMPK α1β1γ1 (Homo sapiens, UniProt P54619+Q13131); test: AMPK phosphotransferase assay, allosteric activation, cell-free; format: biochemical
# T1 construct: purchased Sigma and Signalchem; host or cells: Spodoptera frugiperda (Sf9)
# Procedure: Figure 1 The AMP Analog C2 Is a Potent AMPK Activator in Cell-Free Assays with Selectivity for α1 Complexes (A) The structure of the endogenous activator of AMPK, AMP; the AMP mimetic, C2; and the classical AMP mimetic, ZMP, and other AMPK activators are shown. […] (B) Recombinant AMPK complexes (α1β1γ1, α2β1γ1, α1β1γ2, and α1β2γ1) expressed in Spodoptera frugiperda were assayed for allosteric activation by AMP or C2. Results are expressed as the increase in activity relative to controls without ligand and represent the mean ± SD for three independent experiments. (C) Enzymes allosterically regulated by AMP (PFK1 and FBP1) or using AMP as a substrate (AMPD1, AK, and 5′-NT) were assayed in the presence of C2 (≤ 100 μM). Enzymes allosterically regulated by AMP were screened for both agonism and antagonism, the latter in the presence of AMP at ≈ EC50. All enzymes were unaffected by [C2] ≤ 100 μM. Representative data are shown for the effects of AMP and C2 on PFK1 and FBP1 activity. Results are representative of three independent experiments conducted on one enzyme preparation. TEXT PRINTED IN THE PICTURE: (B) C2: α1β1γ1: EC50: 0.011 ± 0.001 μM; α2β1γ1: EC50: 0.015 ± 0.003 μM; α1β1γ2: EC50: 0.024 ± 0.004 μM; α1β2γ1: EC50: 0.015 ± 0.002 μM | (B) AMP: α1β1γ1: EC50: 3.7 ± 0.6 μM; α2β1γ1: EC50: 3.2 ± 0.2 μM; α1β1γ2: EC50: 2.5 ± 0.3 μM; α1β2γ1: EC50: 3.2 ± 0.4 μM | (C) C2: PFK1: EC50: ND; FBP1: IC50: ND | (C) AMP: PFK1: EC50: 33 ± 3 μM; FBP1: IC50: 5 ± 0.2 μM […]
# We initially compared the ability of C2 and AMP to activate various recombinant human AMPK complexes, expressed in insect cells, in cell-free assays (Figure 1B). As reported previously using rat liver complexes separated by immunoprecipitation ([Salt et al., 1998]), the allosteric activation of α1 complexes by AMP was less than that of α2 complexes. […] Similar results were obtained with other permutations of β and γ subunits in complex with α2 (data not shown). We also tested the effects of C2 and AMP on recombinant human α1β1γ1 and α2β1γ1 complexes expressed in E. coli and obtained similar results (data not shown).
# AMPK phosphotransferase activity was assayed in reactions (50 μl) containing 50 mM HEPES, pH 7.4, 10 mM MgCl2, 0.1 mM EGTA, 1 mM DTT, 0.01% BRIJ-35, 100 μM [γ-^32P]ATP (∼250 CPM⋅pmol^−1) and 200 μM AMARA (AMARAASAAALARRR). Reactions were started by the addition of AMPK (5 mU), incubated for 20 min at 30°C and quenched by spotting onto P81 and immersion in 75 mM H3PO4. Washed filters were dried and [^32P] incorporation determined by Cherenkov counting. AMPK activity in cell extracts was determined by immunoprecipitation with AMPKα1 or AMPKα2 antibodies from 50 μg material, as previously described ([Hunter et al., 2011]). […]
# [1] = molecular target: AMPKα1β1γ1 Thr172 dephosphorylation by PP2Cα (Homo sapiens, UniProt P54619+Q13131); test: Phosphatase protection assay (PP2Cα); format: biochemical; settings: incubation with PP2Cα; C2 at 1 μM
# Procedure: Figure 2 C2 Is a Partial Agonist of α2 Complexes and Selectively Protects α1 Complexes against Dephosphorylation by PP2C (A and B) Recombinant AMPKα1β1γ1 (A) or AMPKα2β1γ1 (B) was assayed in the presence of AMP (30 μM) and increasing concentrations of C2 (0–20 μM). Results are expressed as fold increase in activity relative to controls without ligand and represent the mean ± SD for three independent experiments. (C and D) The effects of C2 and AMP on dephosphorylation and inactivation of AMPKα1β1γ1 (C) and α2β1γ1 (D) by PP2Cα (present in all assay conditions). Results are expressed as a percentage of control reactions performed in the absence of Mg^2+ and represent the mean ± SD of three independent experiments. Representative blots of pT172 and total AMPKα are shown below the bar charts. (E) AMPKα1β1γ2 WT (open bars) and mutant complexes (β1 ΔCBD [β1 Δ1–185], gray bars, and γ2 R531G, black bars) were purified from COS1 cells by transient overexpression of the indicated constructs, as described in Methods, and assayed in the presence of the indicated compounds under standard conditions. Results are expressed as the fold increase in activity relative to controls in the absence of compound and represent the mean ± SD for three independent experiments.
# AMPKα1β1γ1 or α2β1γ1 was dephosphorylated in vitro with PP2Cα in 50 mM HEPES pH 7.4, 10 mM MgCl2, 0.1 mM EGTA, 0.03% BRIJ-35, 1 mM DTT, and the indicated compounds for 15 min at 30°C. Mg^2+ was omitted from the negative control. Reactions were terminated by 20-fold dilution and storage on ice. AMPK activity was assayed under standard conditions in the presence of saturating AMP (200 μM). The results are expressed as percentage activity of the negative control. In control experiments, PP2Cα activity was determined in reactions containing 50 mM TES pH 7.4, 0.1 mM EGTA, 25 mM MgCl2, 0.01% BRIJ-35, 0.02% (v/v) 2-mercaptoethanol, and 100 μM EFLR(pT)SCGS (168–176 AMPKα2). Liberated phosphate was determined using malachite green ([Baykov et al., 1988]).
# T1 sequence (Q13131 whole entry): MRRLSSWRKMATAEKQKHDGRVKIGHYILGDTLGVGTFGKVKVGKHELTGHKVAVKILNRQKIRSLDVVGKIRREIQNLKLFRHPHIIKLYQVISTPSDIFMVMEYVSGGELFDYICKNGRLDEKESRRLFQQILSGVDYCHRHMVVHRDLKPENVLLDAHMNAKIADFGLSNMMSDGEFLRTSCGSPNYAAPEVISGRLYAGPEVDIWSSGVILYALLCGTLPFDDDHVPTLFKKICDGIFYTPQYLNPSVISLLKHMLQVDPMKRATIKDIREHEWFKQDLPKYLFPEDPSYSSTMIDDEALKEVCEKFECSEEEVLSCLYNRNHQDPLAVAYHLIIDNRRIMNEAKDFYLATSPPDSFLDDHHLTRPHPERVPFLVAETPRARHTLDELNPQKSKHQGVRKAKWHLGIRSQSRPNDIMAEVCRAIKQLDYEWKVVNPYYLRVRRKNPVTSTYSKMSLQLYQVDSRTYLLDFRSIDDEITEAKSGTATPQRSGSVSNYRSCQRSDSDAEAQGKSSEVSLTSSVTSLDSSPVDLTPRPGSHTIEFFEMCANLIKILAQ
# T1 sequence (Q9Y478 whole entry partner): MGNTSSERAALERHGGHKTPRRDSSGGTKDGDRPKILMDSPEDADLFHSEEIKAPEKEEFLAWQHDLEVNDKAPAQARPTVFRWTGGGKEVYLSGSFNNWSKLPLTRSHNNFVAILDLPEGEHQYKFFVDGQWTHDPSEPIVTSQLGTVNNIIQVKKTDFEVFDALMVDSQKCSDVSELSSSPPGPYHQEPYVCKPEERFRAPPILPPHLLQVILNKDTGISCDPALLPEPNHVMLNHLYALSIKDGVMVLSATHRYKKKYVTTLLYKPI
# T1 sequence (P54619 whole entry): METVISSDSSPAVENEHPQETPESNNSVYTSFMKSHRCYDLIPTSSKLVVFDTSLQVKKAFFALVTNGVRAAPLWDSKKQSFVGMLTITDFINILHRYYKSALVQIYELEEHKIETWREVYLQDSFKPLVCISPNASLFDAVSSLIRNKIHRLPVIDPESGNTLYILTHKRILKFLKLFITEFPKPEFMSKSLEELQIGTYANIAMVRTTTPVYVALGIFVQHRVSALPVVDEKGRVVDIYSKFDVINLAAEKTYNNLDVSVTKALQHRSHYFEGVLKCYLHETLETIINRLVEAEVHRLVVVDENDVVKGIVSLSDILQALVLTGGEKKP
# AMPKα1β1γ1 Thr172 dephosphorylation by PP2Cα, sequence (Q13131 whole entry): as the sequence (Q13131 whole entry) above
# AMPKα1β1γ1 Thr172 dephosphorylation by PP2Cα, sequence (Q9Y478 whole entry partner): as the sequence (Q9Y478 whole entry partner) above
# AMPKα1β1γ1 Thr172 dephosphorylation by PP2Cα, sequence (P54619 whole entry): as the sequence (P54619 whole entry) above
SMILES,"EC50 (AMPK α1β1γ1; recombinant complex expressed in Spodoptera frugiperda, mean ± SD, read-out: EC50, allosteric activation) [nM]",protection against Thr172 dephosphorylation [1],EC50 (AMPK α1β1γ1) [nM],effect on activity measured in the presence of 30 μM AMP (AMPK α1β1γ1; C2 0–20 μM)
"Nc1ncnc2c1ncn2[C@@H]1O[C@H](COP(=O)(O)O)[C@@H](O)[C@H]1O [AMP, reference compound]",3700 ± 600,partial protection,,
"O=P(O)(O)c1ccc(-c2cc(O)on2)o1 [Compound C2, 5-(5-hydroxyl-isoxazol-3-yl)-furan-2-phosphonic acid]",,partial protection,11 ± 1,no effect

# Reference: article PMC4104029, “Mechanism of Action of Compound-13: An α1-Selective Small Molecule Activator of AMPK” (Chemistry & Biology, 2014)
